One data set deals with male mice. The data set is described as follows: Anti-inflammatory effect: carrageenan-induced inflammation in air pocket, leukocyte count in exudate. It is filed as in vivo. Particulars: for Number of leukocytes: 100 mg/kg/day by gastric gavage on days 3, 4, 5, exudate 4 hours after carrageenan, controls 9.57 ± 0.48; for % inhibition: 100 mg/kg/day by gastric gavage, versus controls. How it is done:
The test was performed on male mice weighing 20 g. This protocol lasted 5 days. On day 1, we injected 3 cm^3 of air in the dorsal part via the subcutaneous route. The resultant air pockets were reinflated on days 2, 3 and 4 with 1 cm^3 of air. […] We induced inflammation by injection of 1 ml of a 2% (weight/volume) suspension of carrageenan in PBS buffer into the air pocket. After 4 hours, the pockets were washed with 2 ml of PBS and the exudates were collected. Aliquot parts were diluted to 1:1 with a 0.01% solution of methylene blue in a PBS buffer. We then performed counting of the cells (principally neutrophils) whose accumulation was induced by the inflammation.

The subject of a further data set is rat platelets. The data set is described as follows: Aggregation of rat platelets (platelet rich plasma) stimulated by ADP, aggregometer. It is filed as cell-based. Particulars: for aggregation: without AMP 80%. As to the method:
Blood was collected on a citrate buffer from rats that had not received any treatment or from humans who had not received any treatment during the two weeks preceding collection of the blood sample. Platelet rich plasma was prepared by centrifugation using known methods. Measurements were performed using an aggregometer marketed under the name “Chrono-log”. The measurements were processed and digitized using an “MP30 Biopac” data acquisition system.

Another data set has as its system human platelets. The data set is described as follows: Response of human platelets stimulated by collagen. Particulars: collagen 0.19 mg/ml; substance 0.6 mM. It is filed as cell-based. As to the method: Platelet rich plasma was prepared by centrifugation using known methods.
Measurements were performed using an aggregometer marketed under the name “Chrono-log”. The measurements were processed and digitized using an “MP30 Biopac” data acquisition system.
We studied the response of human platelets stimulated by collagen (0.19 mg/ml, Biodata). Two parameters were measured: the latency time (elapsed time between bringing the platelets into contact with collagen and the beginning of aggregation) and the maximum amplitude of aggregation.

In a further data set the test system is gastric mucosa. Put plainly: Gastric toxicity, macroscopic and histologic observation of the stomach. Type of data set: in vivo. Particulars: 100 mg/kg by gavage, fasted rats, 3 hours. How it is done:
This test was performed on Sprague Dawley rats (IFFA CREDO, l'Arbresle, France). The rats were in a fasting state the evening before the experiment (but drinking water was available ad libitum). […] Three hours later, the rats were sacrificed by a lethal dose of pentobarbital. The stomach was removed, opened along the greater curvature and rinsed with water. The gastric mucosa was photographed and digitized using a Macintosh G3 computer equipped with a program (NIH, USA) and a video card (Scion, USA). The stomach was fixed with buffered formalin and then processed with the conventional histological techniques for paraffin inclusion. The sections (5 μm) were then stained with hematoxylin-eosin-safranin.
Two observations were performed: macroscopic (after the stomach was collected, under the microscope) and histologic.

For the compound `CC(=O)Oc1ccccc1C(=O)O` [aspirin, acetylsalicylic acid], in the data set with male mice, the Number of leukocytes is reported as 6.40 ± 0.77 millions/ml and the “% inhibition” value was 33%.

For the compound `Nc1ncnc2c1ncn2[C@@H]1O[C@H](COP(=O)(O)O)[C@@H](O)[C@H]1O` [AMP, (5′-O-phosphate)adenosine], the aggregation in the data set with rat platelets (ADP 20 μM in the presence of 2.5 mM AMP) is recorded as 40%; in the data set on rat platelets (ADP 20 μM in the presence of 5.0 mM AMP), 20%. Besides, the “effect on aggregation already induced” value in the data set with rat platelets (ADP 20 μM, AMP 10 mM added 30 seconds later) is given as “immediate disaggregation”. In the data set with human platelets, the “latency time multiplied by (factor)” value is listed as “circa 1.5”. Also, the “maximum response (maximum amplitude of aggregation) to collagen” value in the data set with human platelets was “not modified”.

In the case of `O=C([O-])c1ccccc1O.[Na+]` [sodium salicylate], the “inhibition of platelet aggregation” value in the data set with rat platelets (sodium salicylate 7.5 mM added to plasma, then ADP 20 μM) is reported as “No significant inhibition”.

Take `O=C(Nc1ncnc2c1ncn2[C@@H]1O[C@H](CO)[C@@H](O)[C@H]1O)c1ccccc1O` [Example 3, adenosine N-salicylyl]: in the data set with male mice, the Number of leukocytes was 3.80 ± 0.80 millions/ml and the “% inhibition” value is 60%. Further, the “damage to the gastric wall (macroscopic and histologic)” value in the data set with gastric mucosa was “did not cause damage to the gastric wall”.

On to `Nc1ncnc2c1ncn2[C@@H]1O[C@H](CO)[C@@H](O)[C@H]1O` [adenosine], for which, in the data set with rat platelets (ADP 20 μM, adenosine 4 mM in place of AMP 5 mM), the “aggregation compared with AMP (5 mM)” value is “Comparable results”.

As a reminder, the % inhibition is the percentage by which the read-out fell short of the control. Low readings indicate a weak effect, high ones a strong effect.

The values above are taken from patent publication US20030139368A1, “Antithrombotic and/or anti-inflammatory composition combining purine activity and NSAID activity” (priority 2000, published 2003).
